Several values for one entry are separate records, joined by “and”; a condition that tells them apart may be missing. Equal entries are not always repeated. Entries after “also recorded” stand apart in the source; their conditions may differ.
System: neutrophils isolated from the kidneys of fathead minnows
Test: Neutrophil oxidative (respiratory) burst, oxidation of DHR123 to rhodamine by flow cytometry
Format: cell-based, Pimephales promelas
Details: for % of PMA (oxidative burst): PMA at 1 μg/ml = 100%, * P<0.05; for stimulation of neutrophils (qualitative): exposure of neutrophils to individual oligos and their dimer
From the text: Polynucleotides that stimulate neutrophils may be identified by exposing neutrophils isolated from the kidneys of fathead minnows to one or more polynucleotides complementary to an Initiation Site of Origin of Replication. The oxidation of the non-fluorescent dihydrorhodamine 123 (DHR123) to fluorescent rhodamine (Rh 123) may be determined indirectly by determining fluorescence intensity using spectrofluorometry in a flow cytometer. Rh 123 has an absorption maximum at 507 nm and a fluorescence maximum at 529 nm. Results of fluorescence intensity for the polynucleotide of the present invention and a control may be obtained and compared. The control serves as a reference point for measuring changes in phenotype such as fluorescence intensity. A control may include a neutrophil contacted with a known neutrophil stimulator, such as phorbol myristic acetate (PMA), and/or a neutrophil not exposed to the neutrophil stimulator or the polynucleotide of the present invention. The degree or amount of fluorescent intensity of each sample may be determined at a desired time point and the values of various samples compared. For example, a similar or an increase in the fluorescence intensity level of a sample from a neutrophil exposed to a polynucleotide of the present invention relative to the fluorescence intensity level of a sample from a neutrophil exposed to a known neutrophil stimulator would be indicative of the polynucleotide being able to stimulate neutrophils. For example, an increase in the fluorescence intensity level of a sample from a neutrophil exposed to a polynucleotide of the present invention relative to the fluorescence intensity level of a sample from a control neutrophil not exposed a known neutrophil stimulator or polynucleotide of the present invention would be indicative of the polynucleotide being able to stimulate neutrophils. Other suitable assays may be used to determine neutrophil stimulation, by measuring the uptake of oxygen or destruction of bacteria, including but not limited to. Measuring the release of specific cytokines can also be used to determine neutrophil activity. See: Scapini, P., Llapinet-Vera, J., Gasperini, S., Calzetti, F., Bazzoni, F., Cassatella, M., The Neutrophil as a Cellular Source of Cytokines; Immunol. Rev. 177, 195-203.
Killing microbes by the action of myeloperoxidase requires oxygen. Therefore, measuring the transient increase in oxygen uptake—the respiratory burst—by neutrophils reflects their antimicrobial activity. The respiratory burst, therefore, can be used as an indicator of the extent of neutrophil stimulation.
Oligo A can dimerize with itself which may explain why it had less broad stimulating activity than die Oligo B. It was determined by spectrofluorometry in a flow cytometer which recorded the oxidation of the non-fluorescent dihydrorhodamine 123 (DHR123) to fluorescent rhodamine during exposure of neutrophils to the oligos. Results were compared to the degree of fluorescence of a known powerful neutrophil stimulator, phorbol myristic acetate (PMA).
The degree of stimulation by PMA at a concentration of […] represented in the accompanying graph as 100%.
Neutrophils from fathead minnows were prepared and tested by the Institute for International Cooperation in Animal Biologics, Iowa State Univ., Ames, Iowa 50011 (See: Immunomodulatory Effects of B-glucan on Neutrophil Function in Fathead Minnows, Pimephales promelas Rafinesque, 1820, Dev. and Comp. Immunol. (2006 30; 817-830), Palić, D., et al). Oligos were prepared by Oligos, Etc., Portland, Oreg. 97298).

Molecule | % of PMA (oxidative burst) (Oligo Conc. 0.03 μg/ml) | % of PMA (oxidative burst) (Oligo Conc. 0.3 μg/ml) | % of PMA (oxidative burst) (Oligo Conc. 3 μg/ml) | % of PMA (oxidative burst) (Oligo Conc. 30 μg/ml) | stimulation of neutrophils (qualitative) | neutrophil destruction (30 μg/ml) | oxidative burst compared with other oligos (P<0.05 denoted by *) | degree of stimulation (reference) (PMA at 1 μg/, set as 100%)
5′AAUAggUgU3′ (AAUANGUGU; ribonucleotide, lower-case positions undefined, further chemistry not given here) [Oligo A, ribonucleotide complementary to the consensus core of bacterial Initiation Sites] | 11.83 % of PMA | 0 % of PMA | 0 % of PMA | 16.21 % of PMA | significant stimulation |  |  | 
5′UUAUCCACA3′ (UUAUNCACA; chemistry not fully specified) [Oligo B] | 30 % of PMA and 29.57* % of PMA | 18.32* % of PMA | 33.02* % of PMA | 14.93 % of PMA | significant stimulation | did not indicate neutrophil destruction | significantly higher than Oligo A at all tested concentrations; also recorded: significantly higher than mixtures of Oligos A and B at most concentrations | 
CCCCCCCCCCCCCC(=O)O[C@@H]1[C@@H](C)[C@@]2(O)[C@@H](C=C(CO)C[C@]3(O)C(=O)C(C)=C[C@@H]23)[C@@H]2C(C)(C)[C@]12OC(C)=O [PMA, phorbol myristic acetate, reference compound] |  |  |  |  |  |  |  | 100%
